Results on one molecule are retold here after patent US5866377A, “Aminooligosaccharide derivative and process for preparing the same” (Chong Kun Dang Corporation, priority 1994, dated 1999).

Data set [1] is described as follows: Acidic, neutral or basic properties. The data set is classed as physicochemical. The text has this:
13. Acidic, neutral or basic properties:

The subject of data set [2] is Comamonas terrigena(ATCG 8461). Kind of data set: Antibacterial activity, paper disc method, Gram-negative strain. The data set is classed as cell-based. Conditions: 1 mg/ml sample, read-out: inhibitory zone. The procedure:
To four of 500 ml Erlenmeyer flasks was addled 100 ml of a medium for seed culture(pH 6.5) containing glucose 1 (w/v) %, dextrin 1 (w/v) %, NZ-amine(type A) 0.5 (w/v) %, yeast extract 0.5 (w/v) % and calcium carbonate 0.1 (w/v) %, and sterilized at 120° C. for 15 min. 1 platinum loop of slant culture of Streptomyces sp. CK-4416 which was obtained from a subculture, was inoculated to each of four flasks and incubated under shaking at 27° C. for 3 days. Then, 100 ml of culture media(pH 6.5) containing soluble starch 3 (w/v) %, soybean powder 1.5 (w/v) %, corn steep liquor 1.5 (w/v) %, polypeptone 0.2 (w/v) %, Na2 S2 O3 0.1 (w/v) %, calcium carbonate 0.5 (w/v) %, cobalt chloride 0.0001 (w/v) % was added to 200 of 500 ml Erlenmeyer flasks and sterilized at 120° C. for 30 min. 2 (v/v) % of seed culture was inoculated to the media and incubated at 27° C. for 3 days under shaking at 240 rpm. CK-4416 was quantitatively assayed by the determination of antimicrobial activity employing a test organism Comamonas terrigena(ATCC 8461) in accordance with conventional paper disc method. After 3 days culture, pH and yield were determined as 7.2 and 0.06 mg/ml, respectively.
(§1) Antibacterial activities for Gram-positive and negative bacterial strains were determined with 1 mg/ml of CK-4416 sample, by employing paper disc method.

A short description of data set [3]: Solubility. Type of data set: physicochemical. The text has this:
soluble in water and ethanol insoluble in benzene and normal hexane

Data set [4] concerns the target amylase. Description: Inhibition of amylase activity. The data set is classed as biochemical. Conditions: 0.25M phosphate buffer pH 7.0, starch substrate, 37° C., absorbance at 660 nm; 30 min; read-out: half(50%) inhibition ratio for amylase activity(IC50). The procedure: An enzyme solution(hereinafter referred to as `solution A`) containing amylase dissolved in 0.25M phosphate buffer(pH 7.0), 0.25M phosphate buffer solution(pH 7.0)(hereinafter referred to as `solution B`) and 0.04 (w/v) % starch solution (hereinafter referred to as `solution C`) were prepared, respectively. Then, 0.05 ml of solution B containing CK-4416 dissolved in solution B, 0.1 ml of solution B and 0.05 ml of solution B were combined to incubate at 37° C. for 5 min, and further incubated for 30 min after the addition of 0.5 ml of solution C. After […], absorbance at 660 nm was deter-mined for CK-4416 sample(T) and control(C) which is free of sample.
Inhibition ratio=(C-T)/C×100

For data set [5], the system named is blood glucose level. Kind of data set: Lowering of sugar level in blood after oral starch load. The data set is classed as in vivo. Conditions: male SD rats fasted 12 hrs, 1 hr after administration, glucose oxidase method. The method, then:
To two groups of 5 male SD rats fasted for 12 hrs, 1.5 g/kg of starch was orally administered, concurrently with 40 mg/kg and 80 mg/kg of samples. Then, blood was taken from the rats after 1 hr from administration, and glucose level in blood was determined by glucose oxidase method and compared with control group which has not taken the CK-4416 sample.

In data set [6] the test system is Gram-positive bacterial strains. Description: Antibacterial activity, paper disc method, Gram-positive strains. Type of data set: cell-based. Conditions: 1 mg/ml sample. The method, then: as §1

On to `OCC1OC(OC2C(CO)OC(OC3C(CO)OC(OC4C(CO)OC(OC5C(CO)OC(O)C(O)C5O)C(O)C4O)C(O)C3O)C(O)C2O)C(O)C(O)C1NC1C(O)C(O)C(O)C2(CO)OC12` (single isomer, unassigned) [CK-4416], for which the “Acidic, neutral or basic properties” value in data set [1] is “weakly basic”. Besides, the zone of inhibition at 1000 µg/mL in data set [2] was 24.8 mm. The Solubility result in data set [3] (in benzene and normal hexane) is listed as “insoluble”; in data set [3] (in water and ethanol), “soluble”. Further, the IC50 in data set [4] amounted to 1600 nM. The Blood glucose level is 97.5 ± 14.3 in data set [5] (40 mg/kg oral with 1.5 g/kg starch) and 87.5 ± 11.3 in data set [5] (80 mg/kg oral with 1.5 g/kg starch). Further, the Antibacterial activity entry in data set [6] is given as “no activity”.
